In patent publication US9549943B2, “A3 adenosine receptor ligands for use in treatment of a sexual dysfunction” (CAN-FITE BIOPHARMA LTD., priority 2012, dated 2017):

How the values were obtained:
[1] = test system: Patients with Moderate-to-Severe Dry Eye Disease; assay: Phase 3 clinical study of oral CF101 in dry eye disease; patient-reported sexual effects; format: in vivo, human
Text: The clinical study (the “Study”) was a Phase 3, Randomized, Double-Masked, Placebo-Controlled, Dose-Finding, Parallel-Group Study of the Safety and Efficacy of Daily CF101 Administered Orally in Patients with Moderate-to-Severe Dry Eye Disease, keratoconjunctivitis sicca (KCS). CF101 is an experimental pharmaceutical composition where the active ingredient is IB-MECA. The study had two primary objectives: (i) determine the efficacy of oral administered CF101, as compared to placebo, when administered at doses of either 0.1 mg or 1.0 mg (namely 0.1 and 1 mg of IB-MECA per each administration, respectively) twice daily for 24 weeks in patients with KCS, and (ii) determine the safety of this drug in the patients. Patients were randomized to receive pills of either CF101 0.1 mg, CF101 1.0 mg, or matching placebo, given orally twice daily (BID) for 24 weeks. A Screening Period of up to 4 weeks that includes a 2-week run-in period that preceded the 24-week treatment period, followed by a 2-week follow-up period. The patients that were enrolled in the study had to meet a number of inclusion criteria (namely criteria that had to be matched for a human subject to participate in the study), including (i) being 18 years of age and over, (ii) being diagnosed with moderate-to-severe Aqueous-Deficient Dry Eye (including Sjögren's Syndrome dry eye), as defined by acceptable clinical criteria, and (iii) a variety of other criteria. Patients that met certain exclusion criteria that related to certain ophthalmic conditions and use of other medications. Clinical outcome in improving KCS symptoms was determined through a variety of relevant ophthalmic parameters. In addition, adverse events were recorded for each patient throughout the study and all effects reported by patients were reported. By the time of filing this patent application the study was still ongoing. […] It should be noted that at this time of reporting of these events the study was still masked, namely it is not known whether the patients received CF101 or placebo and if CF101 than the dose of the drug.

[2] = test system: patients with active rheumatoid arthritis (RA); assay: Phase 2 study of oral CF101 added to weekly Methotrexate in rheumatoid arthritis; sexual effects; format: in vivo, human; conditions: CF101 0.1 mg or 1 mg tablets orally every 12 h for 12 weeks, with weekly MTX
Protocol: Phase 2 study in patients with active rheumatoid arthritis (RA) (randomized, double-blind, placebo-controlled), treated in parallel with CF101 administrated orally when added to weekly Methotrexate (MTX). The patients were given CF101 either 0.1 mg or 1 mg tablets or placebo tablets, taken orally every 12 h for 12 weeks. Washout of other disease-modifying antirheumatic drugs (DMARDs), including biological agents was occurring prior to dosing.

[3] = test system: patients with moderated to severe Plaque Psoriasis (PS); assay: Phase 2 study of oral CF101 in Plaque Psoriasis; sexual effects; format: in vivo, human; conditions: CF101 1 mg, 2 mg and 4 mg orally twice daily for 12 weeks
Protocol: In a further Phase 2 study, randomized, double-blind, dose-ranging, placebo-controlled study was conducted to determine safety and activity of CF101 administered orally in patients with moderated to severe Plaque Psoriasis (PS). CF101 was administered at 1 mg. 2 mg and 4 mg twice daily for 12 weeks.

Male C57BL/6j mice = assay: Concanavalin A mouse model treated with allosteric enhancer; erection observed; format: in vivo; conditions: 100 μg/kg orally 8 h after Con.A and 2 h before termination, no signs in control-untreated group
Protocol: Male C57BL/6j mice, 8 weeks of age, were injected intravenously (tail vein) with concanavalin A (Con.A) (20 mg/kg). twenty four hours after Con.A injection, levels of alanine aminotransferase (ALT) and aspirate aminotransferase (AST) were measured in the serum.
The allosteric compound, Luf6000 (also known as N-(3,4-dichloro-phenyl)-2-cyclohexyl-1H-imidazo[4,5-c]quinolin-4-amine), was orally administered at a dose of 100 μg/kg 8 h after Con.A administration and 2 h before termination.

| SMILES | erection or increase in sexual desire in patients ([1]; oral CF101, patients with moderate to severe dry eye disease (summary statement)) | period during which erection occurred every day after each intake ([1]; patient) | sexual potency reported by patient ([1]; patient (code 104507), oral, twice daily, 0.1 mg or 1 mg, study still masked) | time after intake to unprovoked erection ([1]; patient, after each CF101 intake) | erection reported by patient after intake ([1]; patient, oral, twice daily, 0.1 mg or 1 mg, study still masked) | erection or increase in sexual desire in patients [2] | erection or increase in sexual desire in patients [3] | erection in treated mice (Male C57BL/6j mice) | erection in treated mice (Male C57BL/6j mice; listed as LUF6000) |
| --- | --- | --- | --- | --- | --- | --- | --- | --- | --- |
| CNC(=O)[C@H]1O[C@@H](n2cnc3c(NCc4cccc(I)c4)ncnc32)[C@H](O)[C@@H]1O [CF101, N^6-(3-iodobenzyl)-adenosine-5′-N-methyluronamide] | some of the patients experienced erection or increase in sexual desire | about 10 days | increase of sexual potency | around 30 minutes | unprovoked erection | some of the patients experienced erection or increase in sexual desire | some of the patients experienced erection or increase in sexual desire | – | – |
| Clc1ccc(Nc2nc3ccccc3c3[nH]c(C4CCCCC4)nc23)cc1Cl [Luf6000, N-(3,4-dichloro-phenyl)-2-cyclohexyl-1H-imidazo[4,5-c]quinolin-4-amine] | – | – | – | – | – | – | – | erection was noticed | exhibited erection |
